The text below walks through data of US5300513A, “Carbostyril derivatives and pharmaceutical composition containing the same” (Otsuka Pharmaceutical Co., Ltd., priority 1990, dated 1994).

Structures are written as SMILES. Where a name gives a salt, the structure may show the parent alone.

The first test deals with T1, V1 receptor (Rattus norvegicus, UniProt P30560).
T1 construct: Using rat liver plasma membrane preparations; from tissue; host or cells: rat liver plasma membranes
T1 sequence (P30560 whole entry): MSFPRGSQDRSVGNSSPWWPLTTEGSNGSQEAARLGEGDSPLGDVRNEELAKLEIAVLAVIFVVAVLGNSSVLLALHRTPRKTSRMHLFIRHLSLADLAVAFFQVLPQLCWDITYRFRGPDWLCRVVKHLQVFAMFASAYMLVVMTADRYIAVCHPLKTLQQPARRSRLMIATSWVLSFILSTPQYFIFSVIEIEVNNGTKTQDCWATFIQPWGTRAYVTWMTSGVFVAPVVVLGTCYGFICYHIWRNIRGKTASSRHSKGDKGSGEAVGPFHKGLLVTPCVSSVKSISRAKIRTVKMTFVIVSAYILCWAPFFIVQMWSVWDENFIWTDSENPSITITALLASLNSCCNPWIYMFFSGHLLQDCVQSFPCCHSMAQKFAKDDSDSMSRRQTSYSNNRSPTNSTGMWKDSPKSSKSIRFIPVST
In words: V1 receptor binding assay (inhibition of [3H]-Arg-vasopressin binding to rat liver plasma membrane).
Settings: not given
As to the method:
Using rat liver plasma membrane preparations prepared according to Ichihara's method [cf: Akira Ichihara, J. Bio. […] After incubation, the mixture is filtered three times using the glass filter (GF/F) so as to separate the membrane preparation combined with vasopressin and then washed with the buffer (5 ml). This glass filter is taken out and mixed with liquid scintillation cocktail. The amount of [H]^3 -vasopressin combined with the membrane is measured by liquid scintillation counter and the rate of the inhibitory effect of the test compound is estimated according to the following equation. [formula]
In the case of `C=CCSc1ccc(C(=O)N2CCC(N3C(=O)CCc4ccccc43)CC2)c(OC)c1` [Test Compound 16, 1-[1-(2-Methoxy-4-allylthiobenzoyl)-4-piperidinyl]-3,4-dihydrocarbostyril], the IC50 (in general, the concentration needed to halve the response being measured) amounted to 110 nM.

Still in this test, the particulars now being: rat liver plasma membrane; [H]^3-Arg-vasopressin 2×10^-10 M; 37° C., 10 minutes, pH 8.0; read-out: IC50.
As to `O=C(c1ccc(OCCCCCN2CCC3(CCCCC3)CC2)cc1)N1CCC(N2C(=O)CCc3ccccc32)CC1` [Test Compound 1, 1-[1-{4-[5-(Cyclohexanespiro-4'-(1-piperidinyl))pentyloxy]benzoyl}-4-piperidinyl]-3,4-dihydrocarbostyril], the IC50 worked out at 47 nM. Still for that read-out and setting: with `O=C(c1ccc(OCCCCCNC23CC4CC(CC(C4)C2)C3)cc1)N1CCC(N2C(=O)CCc3ccccc32)CC1` [Test Compound 2, 1-{1-[4-(5-Tricyclo[3.3.1.1^3.7]decanylaminopentyloxy)benzoyl]-4-piperidinyl}-3,4-dihydrocarbostyril hydrochloride] the figure was 27 nM; with `O=C(c1ccc(OCCCCCNCC23CC4CC(CC(C4)C2)C3)cc1)N1CCC(N2C(=O)CCc3ccccc32)CC1` [Test Compound 3, 1-{1-[4-(5-Tricyclo[3.3.1.1^3.7]decanylmethylaminopentyloxy)benzoyl]-4-piperidinyl}-3,4-dihydrocarbostyri], 100 nM; with `O=C(c1ccc(OCCCCCNCC(F)(F)F)cc1)N1CCC(N2C(=O)CCc3ccccc32)CC1` [Test Compound 4, 1-[1-{4-[5-(2,2,2-Trifluoroethylamino)-pentyloxy)benzoyl}-4-piperidinyl}-3,4-dihydrocarbostyril], 320 nM. Same read-out and setting: the value for `CCOC(=O)CC(=O)OCCN(C)CCCCCOc1ccc(C(=O)N2CCC(N3C(=O)CCc4ccccc43)CC2)cc1` [Test Compound 5, 1-[1-{4-[5-[N-Methyl-N-(2-ethoxycarbonylacetyloxyethyl)amino}pentyloxy]benzoyl}-4-piperidinyl]-3,4-dihydrocarbostyril] was 110 nM; that for `C=CCNCC(O)CCCCOc1ccc(C(=O)N2CCC(N3C(=O)CCc4ccccc43)CC2)cc1` (stereo not drawn) [Test Compound 6, 1-{1-[4-(5-Hydroxy-6-allylaminohexyloxy)benzoyl]-4-piperidinyl}-3,4-dihydrocarbostyril] was 140 nM. On the same count and under the same terms, with `NC1CCN(CCCCCOc2ccc(C(=O)N3CCC(N4C(=O)CCc5ccccc54)CC3)cc2)CC1` [Test Compound 7, 1-[1-{4-[5-(4-Amino-1-piperidinyl)pentyloxy)-benzoyl-}-4-piperidinyl]-3,4-dihydrocarbostyril] the figure was 28 nM; with `O=C(c1ccc(OCCCCCN2CCC(NC(=O)C(F)(F)F)CC2)cc1)N1CCC(N2C(=O)CCc3ccccc32)CC1` [Test Compound 8, 1-[1-{4-[5-(4-Trifluoroacetylamino-1-piperidinyl)pentyloxy]benzoyl}-4-piperidinyl]-3,4-dihydrocarbostyril], 63 nM; with `CC(=O)NC1CCN(CCCCCOc2ccc(C(=O)N3CCC(N4C(=O)CCc5ccccc54)CC3)cc2)CC1` [Test Compound 9, 1-[1-{4-[5-(4-Acetylamino-1-piperidinyl)-pentyloxy)benzoyl}-4-piperidinyl]-3,4-dihydrocarbostyril], 36 nM. Turning to `CCN(CC)CC(CCCCOc1ccc(C(=O)N2CCC(N3C(=O)CCc4ccccc43)CC2)cc1)OC(=O)NC` (stereo not drawn) [Test Compound 10, 1-{1-[4-(5-Methylaminocarbonyloxy-6-diethylaminohexyloxy)benzoyl]-4-piperidinyl}-3,4-dihydrocarbostyril], the IC50 came to 38 nM.

For the compound `CCOc1ccc(C(=O)N2CCC(N3C(=S)CCc4ccccc43)CC2)c(OC)c1` [Test Compound 11, 1-[1-(2-Methoxy-4-ethoxybenzoyl)-4-piperidinyl]-3,4-dihydrothiocarbostyril], the half-maximal inhibitory concentration (IC50) came to 730 nM. Same read-out and setting: the value for `O=C(c1ccc(SCCCCCN2CCCC2)cc1)N1CCC(N2C(=O)CCc3ccccc32)CC1` [Test Compound 12, 1-[1-{4-[5-(1-Pyrrolidinyl)pentylthio]-benzoyl}-4-piperidinyl]-3,4-dihydrocarbostyril] was 34 nM; that for `O=C(c1ccc(-c2ccccn2)cc1)N1CCC(N2C(=O)CCc3ccccc32)CC1` [Test Compound 13, 1-{1-[4-(2-Pyridyl)benzoyl}-4-piperidinyl}-3,4-dihydrocarbostyril] was 1200 nM; that for `O=C(c1ccc(-c2ncc[nH]2)cc1)N1CCC(N2C(=O)CCc3ccccc32)CC1` [Test Compound 14, 1-{1-[4-(2-Imidazolyl)benzoyl}-4-piperidinyl}-3,4-dihydrocarbostyril] was 1400 nM.

Turning to `Nc1ccccc1Sc1nccn1-c1ccc(C(=O)N2CCC(N3C(=O)CCc4ccccc43)CC2)cc1` [Test Compound 15, 1-[1-{4-[2-(2-Aminophenylthio)-1-imidazolyl]-benzoyl}-4-piperidinyl]-3,4-dihydrocarbostyril], the IC50 came out at 800 nM.

With `O=C(c1ccc([S+]([O-])CCCCCN2CCCC2)cc1)N1CCC(N2C(=O)CCc3ccccc32)CC1` (stereo not drawn) [Test Compound 17, 1-[1-{4-[5-(1-Pyrrolidinyl)pentylsulfinyl)-benzoyl}-4-piperidinyl]-3,4-dihydrocarbostyril], the IC50 is 3000 nM.

For `O=C(c1ccc(S(=O)(=O)CCCCCN2CCCC2)cc1)N1CCC(N2C(=O)CCc3ccccc32)CC1` [Test Compound 18, 1-[1-{4-[5-(1-Pyrrolidinyl)pentylsulfonyl]-benzoyl}-4-piperidinyl]-3,4-dihydrocarbostyril], the concentration for half-maximal inhibition (IC50) is 1900 nM. The same measure, in the same setting: with `O=C(c1ccc(-c2nc3ccccc3[nH]2)cc1)N1CCC(N2C(=O)CCc3ccccc32)CC1` [Test Compound 19, 1-{1-[4-(2-Benzimidazolyl)benzoyl]-4-piperidinyl}-3,4-dihydrocarbostyril] the figure was 2100 nM. On the same count and under the same terms, with `O=C(c1ccc(-n2ccnc2-c2ccccc2)cc1)N1CCC(N2C(=O)CCc3ccccc32)CC1` [Test Compound 20, 1-{1-[4-(2-Phenyl-1-imidazolyl)benzoyl]-4-piperidinyl}-3,4-dihydrocarbostyril] the figure was 2800 nM; with `COc1ccc(-c2nccn2-c2ccc(C(=O)N3CCC(N4C(=O)CCc5ccccc54)CC3)cc2)cc1` [Test Compound 21, 1-[1-{4-[2-(4-Methoxyphenyl)-1-imidazolyl]-benzoyl}-4-piperidinyl]-3,4-dihydrocarbostyril], 2700 nM.
